One data set deals with T1, human GHSR (Homo sapiens, UniProt Q92847).
T1 construct: host or cells: Chinese hamster ovary (CHO) cells
Briefly: Functional FLIPR assay: inhibition of the ghrelin-evoked peak response in CHO cells stably expressing human GHSR (IC50, functional Ki). In kind it is cell-based. To be noted: functional Ki calculated from IC50 by Cheng-Prusoff equation, Fluo-4AM, ghrelin at EC70. On the procedure:
Chinese hamster ovary cells (CHO), cell line (ES-410-F) purchased from Euroscreen, stably expressing the human GHSR seeded in 96 well plates are pre-loaded with Fluo-4AM fluorescent dye for 60 min before addition of test compounds (5 μM for primary screen). Fluorescent intensity is recorded using a Fluorometric imaging plate reader (FLIPR 98R 96-well format, Molecular Devices) and inhibition of the peak response evoked by ghrelin (EC70 concentration) is calculated.
Potency (IC50) determinations are performed utilizing the same functional assay as described for primary screening, applying the compounds in the concentration range of 170 pM to 10 μM or 340 pM to 20 μM.
The calculation of the functional Ki values for the inhibitors was performed by use of Activity Base. The Ki value is calculated from IC50 using the Cheng Prushoff equation (with reversible inhibition that follows the Michaelis-Menten equation): […] [Cheng, Y. C.; Prushoff, W. H. Biochem. Pharmacol. 1973, 22, 3099-3108]. […]

T1 sequence (Q92847 whole entry): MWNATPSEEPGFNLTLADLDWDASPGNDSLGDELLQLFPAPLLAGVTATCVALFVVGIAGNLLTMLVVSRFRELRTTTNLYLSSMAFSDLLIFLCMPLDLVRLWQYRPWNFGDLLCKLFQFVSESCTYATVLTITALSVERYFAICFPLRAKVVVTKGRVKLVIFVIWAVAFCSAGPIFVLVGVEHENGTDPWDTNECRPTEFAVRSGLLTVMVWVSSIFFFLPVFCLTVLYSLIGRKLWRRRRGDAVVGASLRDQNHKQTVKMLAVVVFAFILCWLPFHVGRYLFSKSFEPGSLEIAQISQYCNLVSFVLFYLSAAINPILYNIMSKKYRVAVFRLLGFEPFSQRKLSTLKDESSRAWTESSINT

Regarding `COc1ccc2[nH]c3c(c2c1)CCNC31CCNC1` (stereo not drawn) [Comparative Example 1, 6-Methoxy-2,3,4,9-tetrahydrospiro[beta-carboline-1,3′-pyrrolidine]], the melting point was more than 180 °C. Take `CCCCNC(=O)N1CCc2c([nH]c3ccc(OC)cc23)C12CCN(CCOc1ccccc1)C2` (stereo not drawn) [Example 30, N-Butyl-6-methoxy-1′-(2-phenoxyethyl)-4,9-dihydrospiro[beta-carboline-1,3′-pyrrolidine]-2(3H)-carboxamide]: the inhibition constant Ki at human GHSR is 59 nM. On the same count and under the same terms, the figure for `COc1ccc2[nH]c3c(c2c1)CCNC31CCN(CCOc2ccccc2)C1` (stereo not drawn) [Example 10, 6-Methoxy-1′-(2-phenoxyethyl)-2,3,4,9-tetrahydrospiro[beta-carboline-1,3′-pyrrolidine]] is 60 nM.

On to `Fc1ccc2c3c([nH]c2c1)C1(CCN(CCOc2ccccc2)C1)NCC3` (stereo not drawn) [Example 11, 7-Fluoro-1′-(2-phenoxyethyl)-2,3,4,9-tetrahydrospiro[beta-carboline-1,3′-pyrrolidine]], for which the Ki at human GHSR was 572 nM.

For orientation: melting point means the temperature, or range, at which the solid turns liquid. The term Ki denotes a dissociation constant, usually derived from enzyme kinetics or from competition with a known ligand.

These data come from patent US20050288316A1, “Beta-carbolines as growth hormone secretagogue receptor (GHSR) antagonists” (priority 2003, published 2005).
